Consider eight compounds from PubChem BioAssay AID1259407 (Chemical Carcinogenesis Research Information System (CCRIS), 2018).

Molecules are shown by their SMILES. Calls of active or inactive are those of the source. How the calls were made is not given here.

The test system of the data set is CCRIS mutagenicity, Ames/micronucleus/aberration tests. The experiment in a line: CCRIS mutagenicity studies.
Where [1] appears, read: Test System: AMES SALMONELLA TYPHIMURIUM, Strain/Indicator: TA98, Metabolic Activation: HAMSTER, LIVER, S-9, AROCLOR 1254 (10%), Method: PREINCUBATION
Where [2] appears, read: Test System: AMES SALMONELLA TYPHIMURIUM, Strain/Indicator: TA98, Metabolic Activation: NONE, Method: PREINCUBATION
The mark [3] stands for this setting: Test System: AMES SALMONELLA TYPHIMURIUM, Strain/Indicator: TA98, Metabolic Activation: RAT, LIVER, S-9, AROCLOR 1254 (10%), Method: PREINCUBATION
The mark [4] stands for this setting: Test System: AMES SALMONELLA TYPHIMURIUM, Strain/Indicator: TA100, Metabolic Activation: NONE, Method: PREINCUBATION
The mark [5] stands for this setting: Test System: AMES SALMONELLA TYPHIMURIUM, Strain/Indicator: TA100, Metabolic Activation: RAT, LIVER, S-9, AROCLOR 1254 (10%), Method: PREINCUBATION
[6] abbreviates: Test System: AMES SALMONELLA TYPHIMURIUM, Strain/Indicator: TA1535, Metabolic Activation: HAMSTER, LIVER, S-9, AROCLOR 1254 (10%), Method: PREINCUBATION
Where [7] appears, read: Test System: AMES SALMONELLA TYPHIMURIUM, Strain/Indicator: TA1535, Metabolic Activation: NONE, Method: PREINCUBATION
Setting [8] is: Test System: AMES SALMONELLA TYPHIMURIUM, Strain/Indicator: TA1535, Metabolic Activation: RAT, LIVER, S-9, AROCLOR 1254 (10%), Method: PREINCUBATION
The mark [9] stands for this setting: Test System: AMES SALMONELLA TYPHIMURIUM, Strain/Indicator: TA1537, Metabolic Activation: HAMSTER, LIVER, S-9, AROCLOR 1254 (10%), Method: PREINCUBATION
Where [10] appears, read: Test System: AMES SALMONELLA TYPHIMURIUM, Strain/Indicator: TA1537, Metabolic Activation: NONE, Method: PREINCUBATION
Where [11] appears, read: Test System: AMES SALMONELLA TYPHIMURIUM, Strain/Indicator: TA1537, Metabolic Activation: RAT, LIVER, S-9, AROCLOR 1254 (10%), Method: PREINCUBATION
[12] abbreviates: Test System: AMES SALMONELLA TYPHIMURIUM, Strain/Indicator: TA100, Metabolic Activation: NONE, Method: STANDARD PLATE.
[13] abbreviates: Test System: AMES SALMONELLA TYPHIMURIUM, Strain/Indicator: TA98, Metabolic Activation: RAT, LIVER, S-9, AROCLOR 1254, Method: STANDARD PLATE.

In the case of `CN1CCC(CN2c3ccccc3Sc3ccccc32)C1` (stereo not given), the mutagenic call was “inactive; negative” (End Point: IN VITRO CHROMOSOMAL ABERRATIONS, Test System: CHINESE HAMSTER OVARY CELLS, Metabolic Activation: NONE); “inactive; negative” (End Point: IN VITRO CHROMOSOMAL ABERRATIONS, Test System: CHINESE HAMSTER OVARY CELLS, Metabolic Activation: RAT, LIVER, S-9, AROCLOR 1254); “inactive; negative” (Test System: AMES SALMONELLA TYPHIMURIUM, Strain/Indicator: TA97, Metabolic Activation: HAMSTER, LIVER, S-9, AROCLOR 1254 (10 OR 30%), Method: PREINCUBATION); “inactive; negative” (Test System: AMES SALMONELLA TYPHIMURIUM, Strain/Indicator: TA97, Metabolic Activation: NONE, Method: PREINCUBATION); “inactive; negative” (Test System: AMES SALMONELLA TYPHIMURIUM, Strain/Indicator: TA97, Metabolic Activation: RAT, LIVER, S-9, AROCLOR 1254 (10 OR 30%), Method: PREINCUBATION); “inactive; negative” under setting [1]. The mutagenic call (Test System: AMES SALMONELLA TYPHIMURIUM, Strain/Indicator: TA98, Metabolic Activation: HAMSTER, LIVER, S-9, AROCLOR 1254 (30%), Method: PREINCUBATION) is “inactive; negative”; the mutagenic call under setting [2] is “inactive; negative”; the mutagenic call under setting [3] is “inactive; negative”; the mutagenic call (Test System: AMES SALMONELLA TYPHIMURIUM, Strain/Indicator: TA98, Metabolic Activation: RAT, LIVER, S-9, AROCLOR 1254 (30%), Method: PREINCUBATION) is “inactive; negative”; the mutagenic call (Test System: AMES SALMONELLA TYPHIMURIUM, Strain/Indicator: TA100, Metabolic Activation: HAMSTER, LIVER, S-9, AROCLOR 1254 (10%), Method: PREINCUBATION) was “inactive; negative”; the mutagenic call (Test System: AMES SALMONELLA TYPHIMURIUM, Strain/Indicator: TA100, Metabolic Activation: HAMSTER, LIVER, S-9, AROCLOR 1254 (30%), Method: PREINCUBATION) is “inactive; negative”. The mutagenic call was “inactive; negative” under setting [4]; “inactive; negative” under setting [5]; “inactive; negative” (Test System: AMES SALMONELLA TYPHIMURIUM, Strain/Indicator: TA100, Metabolic Activation: RAT, LIVER, S-9, AROCLOR 1254 (30%), Method: PREINCUBATION); “inactive; negative” under setting [6]; “inactive; negative” (Test System: AMES SALMONELLA TYPHIMURIUM, Strain/Indicator: TA1535, Metabolic Activation: HAMSTER, LIVER, S-9, AROCLOR 1254 (30%), Method: PREINCUBATION); “inactive; negative” under setting [7]. The mutagenic call runs as follows: under setting [8], “inactive; negative”; (Test System: AMES SALMONELLA TYPHIMURIUM, Strain/Indicator: TA1535, Metabolic Activation: RAT, LIVER, S-9, AROCLOR 1254 (30%), Method: PREINCUBATION) “inactive; negative”; under setting [9], “inactive; negative”; under setting [10], “inactive; negative”; under setting [11], “inactive; negative”.
Consider `CCC(=O)Nc1snc2ccc(C)cc12`, for which the mutagenic call runs as follows: under setting [12], “inactive; negative”; (Test System: AMES SALMONELLA TYPHIMURIUM, Strain/Indicator: TA100, Metabolic Activation: S-9, Method: STANDARD PLATE) “inactive; negative”; (Test System: AMES SALMONELLA TYPHIMURIUM, Strain/Indicator: TA1537, Metabolic Activation: NONE, Method: STANDARD PLATE) “inactive; negative”; (Test System: AMES SALMONELLA TYPHIMURIUM, Strain/Indicator: TA1537, Metabolic Activation: S-9, Method: STANDARD PLATE) “inactive; negative”.
Regarding `c1ccc2c(c1)cc1c3cccc4cccc(c5cccc2c51)c43`, the mutagenic call (Test System: HUMAN H1A1V2 CELLS, Strain/Indicator: TK LOCUS, Metabolic Activation: NONE, Method: SUSPENSION/PLATE) is “active; positive”.
Take `CC(=O)OCc1ccco1`: the mutagenic call under setting [1] was “inactive; negative”; the mutagenic call under setting [2] is “inactive; negative”; the mutagenic call under setting [3] was “active; positive”; the mutagenic call (Test System: AMES SALMONELLA TYPHIMURIUM, Strain/Indicator: TA100, Metabolic Activation: HAMSTER, LIVER, AROCLOR 1254 (10%), Method: PREINCUBATION) was “inactive; negative”; the mutagenic call under setting [4] is “active; positive”; the mutagenic call under setting [5] was “active; positive”. Further, the mutagenic call reads like this: under setting [6], “inactive; negative”; under setting [7], “inactive; negative”; under setting [8], “inactive; negative”; under setting [9], “inactive; negative”; under setting [10], “inactive; negative”; under setting [11], “inactive; negative”.
Take `CCOC(=O)C(=NNc1ccc(-c2ccc(NN=C(C(=O)OCC)C(=O)OCC)c(Cl)c2)cc1Cl)C(=O)OCC`: the mutagenic call is, setting by setting: (Test System: AMES SALMONELLA TYPHIMURIUM, Strain/Indicator: TA98, Metabolic Activation: HAMSTER, LIVER, S-9, Method: PREINCUBATION (PRIVAL METHOD)) “inactive; negative”; (Test System: AMES SALMONELLA TYPHIMURIUM, Strain/Indicator: TA98, Metabolic Activation: NONE, Method: PREINCUBATION (PRIVAL METHOD)) “inactive; negative”.
Turning to `Cc1ccc2nc3n(C)c4ccc(C)cc4c(C)c-3c2c1`, the mutagenic call under setting [13] is “active; positive”.
`CCCCOc1cc(N=Nc2ccc(NCCO)cc2NCCO)ccc1N=Nc1c(S(=O)(=O)O)cc2ccc(N)cc2c1O`: the mutagenic call is “inactive; negative” (Test System: AMES SALMONELLA TYPHIMURIUM, Strain/Indicator: TA98, Metabolic Activation: NONE, Method: STANDARD PLATE); “active; positive” under setting [13]; “inactive; negative” under setting [12]; “inactive; negative” (Test System: AMES SALMONELLA TYPHIMURIUM, Strain/Indicator: TA100, Metabolic Activation: RAT, LIVER, S-9, AROCLOR 1254, Method: STANDARD PLATE); “inactive; negative” (Test System: AMES SALMONELLA TYPHIMURIUM, Strain/Indicator: TA1538, Metabolic Activation: NONE, Method: STANDARD PLATE); “active; positive” (Test System: AMES SALMONELLA TYPHIMURIUM, Strain/Indicator: TA1538, Metabolic Activation: RAT, LIVER, S-9, AROCLOR 1254, Method: STANDARD PLATE).
Take `O=[N+]([O-])c1ccc(Br)c([N+](=O)[O-])c1`: the mutagenic call is “active; positive” (Test System: AMES SALMONELLA TYPHIMURIUM, Strain/Indicator: TA98(1,8-DNP6), Metabolic Activation: NONE, Method: PREINCUBATION); “active; positive” (Test System: AMES SALMONELLA TYPHIMURIUM, Strain/Indicator: TA98(NR), Metabolic Activation: NONE, Method: PREINCUBATION); “active; positive” under setting [2]; “active; positive” (Test System: AMES SALMONELLA TYPHIMURIUM, Strain/Indicator: TA100(NR), Metabolic Activation: NONE, Method: PREINCUBATION); “active; positive” (Test System: AMES SALMONELLA TYPHIMURIUM, Strain/Indicator: TA100/GSH-, Metabolic Activation: NONE, Method: PREINCUBATION); “active; positive” under setting [4].
